Earlier results in patent EP0884997B1, “COMPOSITIONS CONTAINING AN ANTIFUNGAL AND A SULFUR COMPOUND” (JANSSEN PHARMACEUTICA N.V., priority 1996, dated 1997).

Details: prior art medicated shampoos, dandruff patients

Compound | number of patients not responding to particular medicated shampoo
S=[Se]=S [selenium sulfide] | up to 40%
CC(=O)N1CCN(c2ccc(OCC3COC(Cn4ccnc4)(c4ccc(Cl)cc4Cl)O3)cc2)CC1 (centres unmarked) [ketoconazole] | up to 30%
